Experimental data from patent publication US20040197411A1, “Acceptably non-hygroscopic formulation intermediate comprising a hygroscopic drug” (priority 2002, published 2004).

Assay: Moisture sorption analysis by dynamic vapor sorption (DVS)
Format: physicochemical
Conditions: for hygroscopicity and deliquescence: general statement, conditions not given
Protocol: Compound 1 was prepared according to processes described in WO 01/72703. A sample of Compound 1 in substantially dry, amorphous form was subjected to moisture sorption analysis. Dynamic vapor sorption (DVS) was used to determine mass increase (relative to dry mass) was monitored over an adsorption range of 10-70% relative humidity (RH) in increments of 10%. As shown by the moisture sorption isotherm represented in FIG. 1, Compound 1 is hygroscopic.

In the case of `CC(=N)NCCSC[C@](C)(N)C(=O)O.Cl.Cl` [Compound 1, S-[2-[(1-iminoethyl)amino]ethyl]-2-methyl-L-cysteine dihydrochloride], the hygroscopicity and deliquescence is reported as “extremely hygroscopic and deliquescent” and the “moisture sorption isotherm (mass increase relative to dry mass)” value (substantially dry, amorphous form, 10-70% RH in increments of 10%, FIG. 1) is reported as “hygroscopic”.
With `CC(=N)NCCSC[C@](C)(N)C(=O)O` [S-[2-[(1-iminoethyl)amino]ethyl]-2-methyl-L-cysteine] the hygroscopicity and deliquescence was “extremely hygroscopic and deliquescent”.
